Assay results: EP2842965A1, “Neuromedin U analogs comprising serum albumin binding amino acid residue” (Gubra ApS, priority 2013, dated 2015)
Starred links: 1 amine or outer side, 2 acyl side, 3 side chain; linkers in the order of their positions; H or OH if unused. Residues, ends and D or L forms follow the SMILES beside them. Groups on a side chain read outwards from the residue. *: point of attachment. γGlu = O=C(O)[C@H](CCC(=O)[*:2])N[*:1]; Palmitoyl = CCCCCCCCCCCCCCCC(=O)*

Test: In vivo acute/dose response study of food intake in the HM2 system after SC dosing
Conditions: 6 hours post dosing, male NMRI mice
Method: Animals: A total of seventy two (72) male NMRI mice 6-7 weeks old (approx. 25 g BW) at the time of arrival were obtained from Taconic (Denmark) and transferred to the Gubra test stables. Upon arrival the animals will be transferred into the HM2 cages and housed in groups of four. The animal room environment were controlled (targeted ranges: temperature 22 ± 2°C; relative humidity 50 ± 10%; light/dark cycle: 12 hours light, 12 hours dark, lights on from 6 AM to 6 PM. […] have ad libitum access to Altromin (Brogaarden, Denmark) and tap water.
Run-in period: Mice arrived at day -7. A minimum of 5-7 days of habituation to the system was allowed before study start. During these days, animals were handled daily to accustom them to the experimental paradigm.
Runs in the HM2 system: In total five runs were performed in the HM2 system. There were at least 4 days of washout between each run.
Acute effect of lipidated analogues: Mice were re-randomized and the acute effects of the lipidated compounds were tested in an acute setting. Mice were dosed in doses equimolar to the concentration of NMU found to be semi-efficacious.
Dose response study: Different doses of the analogues were tested in order to establish a dose response relationship. Mice were re-randomized and four different doses of the five lipidated analogues were tested over two different runs in the HM2 system and compared with NMU at […] and liraglutide at 0.05 µmol/kg.
Randomization and experimentation: Animals were randomized according to body weight the day of dosing and stratified into the following experimental groups based on mean cage weight (n=4-8): • Pilot (PD) study run 1 (dose finding of NMU): • 1: Vehicle (0.9% NaCl, pH ∼ 4.0 and 0.1% BSA) (n=4) • 2: Native human Neuromedin U (NMU-25), sc, 1 mg/kg (n=4) • 3: Native human Neuromedin U (NMU-25), sc, 3 mg/kg (n=4) • 4: Native human Neuromedin U (NMU-25), sc, 10 mg/kg (n=4) • 5: PYY3-36, sc 1 mg/kg (n=4) • Pilot (PD) study run 2 (dose finding of NMU): • 1: Vehicle (0.9% NaCl, pH ∼ 4.0 and 0.1% BSA) (n=4) • 2: Native human Neuromedin U (NMU-25), sc, 1 mg/kg (n=4) • 3: Native human Neuromedin U (NMU-25), sc, 3 mg/kg (n=4) • Acute effects of lipidated analogues: • 1: Vehicle (PBS + 0.1% BSA+ 5.4% DMSO) SC • 2: Liraglutide 0.2 mg/kg, sc, 0.05 pmol/kg (n=8) • 3: Human neuromedin U 25 (NMU), sc, 1 µmol/kg (n=8) • 5: SEQ ID NO 17, sc, 1 pmol/kg (n=8) • 6: SEQ ID NO 14, sc, 1 pmol/kg (n=8) • 7: SEQ ID NO 11, sc, 1 pmol/kg (n=8) • 8: SEQ ID NO 8, sc, 1 pmol/kg (n=8) • 9: SEQ ID NO 5, sc, 1 pmol/kg (n=8) • Dose response study run 1 • 1: Vehicle (0.9% NaCl, pH ∼ 4.1 and 0.1% BSA) (n=6) • 2: Liraglutide 0.2 mg/kg, sc, 0.05 pmol/kg (n=4) • 3: Human neuromedin U 25 (NMU), sc, 1 µmol/kg (n=5) • 8: SEQ ID NO 17, sc, 1 pmol/kg (n=4) • 9: SEQ ID NO 17, sc, 0.3 pmol/kg (n=5) • 10: SEQ ID NO 17, sc, 0.1 µmol/kg (n=5) • 11: SEQ ID NO 17, sc, 0.03 pmol/kg (n=5) • 12: SEQ ID NO 14, sc, 1 pmol/kg (n=4) • 13: SEQ ID NO 14, sc, 0.3 pmol/kg (n=5) • 14: SEQ ID NO 14, sc, 0.1 pmol/kg (n=5) • 15: SEQ ID NO 14, sc, 0.03 pmol/kg (n=5) • Dose response study run 2 • 1: Vehicle (0.9%NaCl, pH ∼ 4.0 and 0.1% BSA) (n=5) • 2: Liraglutide 0.2 mg/kg, sc, 0.05 pmol/kg (n=4) • 3: Human neuromedin U 25 (NMU), sc, 1 µmol/kg (n=4) • 4: SEQ ID NO 11, sc, 1 pmol/kg (n=4) • 5: SEQ ID NO 11, sc, 0.3 pmol/kg (n=5) • 6: SEQ ID NO 11, sc, 0.1 pmol/kg (n=5) • 7: SEQ ID NO 11, sc, 0.03 pmol/kg (n=5) • 8: SEQ ID NO 8, sc, 1 pmol/kg (n=4) • 9: SEQ ID NO 8, sc, 0.3 pmol/kg (n=5) • 10: SEQ ID NO 8, sc, 0.1 pmol/kg (n=5) • 11: SEQ ID NO 8, sc, 0.03 pmol/kg (n=5) • 12: SEQ ID NO 5, sc, 1 pmol/kg (n=4) • 13: SEQ ID NO 5, sc, 0.3 pmol/kg (n=5) • 14: SEQ ID NO 5, sc, 0.1 µmol/kg (n=5) • 15: SEQ ID NO 5, sc, 0.03 pmol/kg (n=5) Dosing: All dosing took place just prior to lights out in the afternoon. Doses was administered subcutaneously (sc) (dose volume 10 ml/kg), alternating the injection site from the left to the right side of the lower back and inguinal region, respectively. […]

With `CCCCCCCCCCCCCCCC(=O)N[C@@H](CCC(=O)NCCCC[C@H](NC(=O)[C@H](CCC(N)=O)NC(=O)[C@H](CO)NC(=O)[C@H](C)NC(=O)[C@H](Cc1ccccc1)NC(=O)[C@@H]1CCCN1C(=O)[C@H](CO)NC(=O)[C@H](CCC(N)=O)NC(=O)[C@H](Cc1ccccc1)NC(=O)[C@H](CCC(=O)O)NC(=O)[C@H](CCC(=O)O)NC(=O)[C@H](CC(=O)O)NC(=O)[C@@H](NC(=O)[C@H](CCCNC(=N)N)NC(=O)[C@@H](N)Cc1ccccc1)C(C)C)C(=O)N[C@@H](CCCNC(=N)N)C(=O)NCC(=O)N[C@@H](Cc1ccc(O)cc1)C(=O)N[C@@H](Cc1ccccc1)C(=O)N[C@@H](CC(C)C)C(=O)N[C@@H](Cc1ccccc1)C(=O)N[C@@H](CCCNC(=N)N)C(=O)N1CCC[C@H]1C(=O)N[C@@H](CCCNC(=N)N)C(=O)N[C@@H](CC(N)=O)C(N)=O)C(=O)O` [SEQ ID NO 5] (H-FRVDEEFQSPFASQK([γGlu-Palmitoyl])RGYFLFRPRN-NH2) the “Percent food intake reduction 6 hours post SC dosing” value (0.03 µmol/kg) was 41%, the “Percent food intake reduction 6 hours post SC dosing” value (0.1 µmol/kg) was 41% and the “Percent food intake reduction 6 hours post SC dosing” value (0.3 µmol/kg) was 61%. The “Percent food intake reduction 6 hours post SC dosing” value (1.0 µmol/kg) was 76%.
With `CCCCCCCCCCCCCCCC(=O)N[C@@H](CCC(=O)NCCCC[C@H](NC(=O)[C@H](C)NC(=O)[C@H](Cc1ccccc1)NC(=O)[C@@H]1CCCN1C(=O)[C@H](CO)NC(=O)[C@H](CCC(N)=O)NC(=O)[C@H](Cc1ccccc1)NC(=O)[C@H](CCC(=O)O)NC(=O)[C@H](CCC(=O)O)NC(=O)[C@H](CC(=O)O)NC(=O)[C@@H](NC(=O)[C@H](CCCNC(=N)N)NC(=O)[C@@H](N)Cc1ccccc1)C(C)C)C(=O)N[C@@H](CCC(N)=O)C(=O)N[C@@H](CO)C(=O)N[C@@H](CCCNC(=N)N)C(=O)NCC(=O)N[C@@H](Cc1ccc(O)cc1)C(=O)N[C@@H](Cc1ccccc1)C(=O)N[C@@H](CC(C)C)C(=O)N[C@@H](Cc1ccccc1)C(=O)N[C@@H](CCCNC(=N)N)C(=O)N1CCC[C@H]1C(=O)N[C@@H](CCCNC(=N)N)C(=O)N[C@@H](CC(N)=O)C(N)=O)C(=O)O` [SEQ ID NO 8] (H-FRVDEEFQSPFAK([γGlu-Palmitoyl])QSRGYFLFRPRN-NH2) the “Percent food intake reduction 6 hours post SC dosing” value (0.03 µmol/kg) was 25%, the “Percent food intake reduction 6 hours post SC dosing” value (0.1 µmol/kg) was 55% and the “Percent food intake reduction 6 hours post SC dosing” value (0.3 µmol/kg) was 46%. The “Percent food intake reduction 6 hours post SC dosing” value (1.0 µmol/kg) was 90%.
In the case of `CCCCCCCCCCCCCCCC(=O)N[C@@H](CCC(=O)NCCCC[C@H](NC(=O)[C@H](CCC(=O)O)NC(=O)[C@H](CC(=O)O)NC(=O)[C@@H](NC(=O)[C@H](CCCNC(=N)N)NC(=O)[C@@H](N)Cc1ccccc1)C(C)C)C(=O)N[C@@H](Cc1ccccc1)C(=O)N[C@@H](CCC(N)=O)C(=O)N[C@@H](CO)C(=O)N1CCC[C@H]1C(=O)N[C@@H](Cc1ccccc1)C(=O)N[C@@H](C)C(=O)N[C@@H](CO)C(=O)N[C@@H](CCC(N)=O)C(=O)N[C@@H](CO)C(=O)N[C@@H](CCCNC(=N)N)C(=O)NCC(=O)N[C@@H](Cc1ccc(O)cc1)C(=O)N[C@@H](Cc1ccccc1)C(=O)N[C@@H](CC(C)C)C(=O)N[C@@H](Cc1ccccc1)C(=O)N[C@@H](CCCNC(=N)N)C(=O)N1CCC[C@H]1C(=O)N[C@@H](CCCNC(=N)N)C(=O)N[C@@H](CC(N)=O)C(N)=O)C(=O)O` [SEQ ID NO 14] (H-FRVDEK([γGlu-Palmitoyl])FQSPFASQSRGYFLFRPRN-NH2), the “Percent food intake reduction 6 hours post SC dosing” value (0.03 µmol/kg) is reported as 5%, the “Percent food intake reduction 6 hours post SC dosing” value (0.1 µmol/kg) is reported as 31% and the “Percent food intake reduction 6 hours post SC dosing” value (0.3 µmol/kg) is reported as 79%. The “Percent food intake reduction 6 hours post SC dosing” value (1.0 µmol/kg) was 89%.
For `CCCCCCCCCCCCCCCC(=O)N[C@@H](CCC(=O)NCCCC[C@H](NC(=O)[C@@H](NC(=O)[C@H](CCCNC(=N)N)NC(=O)[C@@H](N)Cc1ccccc1)C(C)C)C(=O)N[C@@H](CCC(=O)O)C(=O)N[C@@H](CCC(=O)O)C(=O)N[C@@H](Cc1ccccc1)C(=O)N[C@@H](CCC(N)=O)C(=O)N[C@@H](CO)C(=O)N1CCC[C@H]1C(=O)N[C@@H](Cc1ccccc1)C(=O)N[C@@H](C)C(=O)N[C@@H](CO)C(=O)N[C@@H](CCC(N)=O)C(=O)N[C@@H](CO)C(=O)N[C@@H](CCCNC(=N)N)C(=O)NCC(=O)N[C@@H](Cc1ccc(O)cc1)C(=O)N[C@@H](Cc1ccccc1)C(=O)N[C@@H](CC(C)C)C(=O)N[C@@H](Cc1ccccc1)C(=O)N[C@@H](CCCNC(=N)N)C(=O)N1CCC[C@H]1C(=O)N[C@@H](CCCNC(=N)N)C(=O)N[C@@H](CC(N)=O)C(N)=O)C(=O)O` [SEQ ID NO 17] (H-FRVK([γGlu-Palmitoyl])EEFQSPFASQSRGYFLFRPRN-NH2), the “Percent food intake reduction 6 hours post SC dosing” value (0.03 µmol/kg) was 20%, the “Percent food intake reduction 6 hours post SC dosing” value (0.1 µmol/kg) was 43% and the “Percent food intake reduction 6 hours post SC dosing” value (0.3 µmol/kg) was 64%. For the same compound, the “Percent food intake reduction 6 hours post SC dosing” value (1.0 µmol/kg) was 78%.
